The target in the assay is Human immunodeficiency virus type 1 protease (Human immunodeficiency virus 1, UniProt Q72874). The assay can be described thus: binding affinity towards HIV-1 Protease enzyme.
With `N=C(N)NCCC[C@H]1NC(=O)[C@@H]2CCCN2C(=O)[C@@H](NC=O)CNC(=O)/C=C/C(Cc2ccc(O)cc2)NC(=O)[C@@H](Cc2ccccc2)NC(=O)C1=O` (stereo partly drawn), the Ki (as a rule, a dissociation constant, usually derived from enzyme kinetics or from competition with a known ligand) stood at 10 nM.
Next, `CC(C)C[C@@H](NC(=O)[C@H](O)COS(=O)(=O)O)C(=O)N[C@@H]1C(=O)N[C@@H](CCCNC(=N)N)C(=O)N[C@H]2CC[C@H](O)N(C2=O)[C@@H](CC(C)C)C(=O)N(C)[C@H](Cc2ccc(O)cc2)C(=O)N[C@H](C(C)C)C(=O)O[C@@H]1C` [PROTEOLYTIC ENZYME INHIBITOR]: 1 nM; `CC[C@H](C)[C@H](NC(=O)[C@H](Cc1ccccc1)NC[C@H](O)[C@@H]1Cc2ccc(cc2)OCCCC(=O)N[C@@H](CC(N)=O)C(=O)N1)C(=O)N[C@H](C(N)=O)C(C)C`: 12 nM; `CC[C@@H](C)[C@H](NC(=O)[C@H](Cc1ccccc1)NC(=O)[C@H](Cc1ccccc1)NC(=O)[C@@H](NC(=O)[C@H](CC(C)C)NC(C)=O)C(C)C)C(=O)N[C@H](C(N)=O)C(C)C`: 60000 nM.
Compound `CC[C@H](C)[C@@H]1NC(=O)[C@@H](NC(=O)[C@@H]2Cc3ccc(cc3)OCCCCC(=O)N[C@@H](C(C)C)C(=O)N2)Cc2ccc(cc2)OCCCNC1=O` displayed a Ki of 800 nM.
The figure for `CC[C@H](C)[C@@H]1NC(=O)[C@@H](C(N)C[C@@H](O)C(Cc2ccccc2)NC(=O)OC(C)(C)C)Cc2ccc(cc2)OCCCNC1=O` (stereo partly drawn) is 4 nM; for `CC(C)C[C@H](CC(=O)NO)C(=O)N[C@H]1Cc2cn(c3ccccc23)CCCCCCNC1=O` it is 1 nM.
In turn, `CC[C@H](C)[C@@H]1NC(=O)[C@@H](C(N)C[C@@H](O)[C@@H]2Cc3ccc(cc3)OCCCCC(=O)N[C@@H](C(C)C)C(=O)N2)Cc2ccc(cc2)OCCCNC1=O` (stereo partly drawn) had a Ki of 3 nM.

(Values after ChEMBL document CHEMBL1132991, “Conformational selection of inhibitors and substrates by proteolytic enzymes: implications for drug design and polypeptide processing” (J Med Chem, 2000).)
